One assay addresses T1, menin (Homo sapiens, UniProt O00255, T541A).
T1 construct: Menin (a.a. 1-610-6×his tag)
T1 sequence (O00255 with tags, fused parts or gaps T541A): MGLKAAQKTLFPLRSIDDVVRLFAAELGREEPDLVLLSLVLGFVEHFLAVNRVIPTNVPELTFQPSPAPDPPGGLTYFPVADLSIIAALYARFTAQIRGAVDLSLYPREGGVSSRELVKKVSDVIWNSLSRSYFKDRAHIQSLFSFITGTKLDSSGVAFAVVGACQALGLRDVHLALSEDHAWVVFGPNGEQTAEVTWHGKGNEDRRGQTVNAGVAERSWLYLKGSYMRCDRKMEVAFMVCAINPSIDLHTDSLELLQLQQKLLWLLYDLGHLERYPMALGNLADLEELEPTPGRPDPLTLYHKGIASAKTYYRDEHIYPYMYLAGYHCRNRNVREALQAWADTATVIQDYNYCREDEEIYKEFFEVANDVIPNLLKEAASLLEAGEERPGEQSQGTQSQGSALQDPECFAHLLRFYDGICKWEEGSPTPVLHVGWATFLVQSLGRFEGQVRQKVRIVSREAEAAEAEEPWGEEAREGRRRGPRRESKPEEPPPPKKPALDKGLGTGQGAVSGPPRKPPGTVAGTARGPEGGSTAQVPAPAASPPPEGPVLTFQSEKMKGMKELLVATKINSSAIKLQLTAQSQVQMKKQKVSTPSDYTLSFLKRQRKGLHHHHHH
Briefly: Menin/MLL homogenous time-resolved fluorescence (HTRF) assay. It counts as binding. An outline of the steps:
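Terbium-labeled menin (aa 1-610, His-tagged; […]) preincubated 5 min with compound, then 75 nM FITC-MBM1 peptide for 15 min, ambient, Tris pH 7.5, 0.5% DMSO. HTRF 520/490 ratio; 11-point 3-fold titration; IC50 from % inhibition fit.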

For assay [1], the system named is MV-4-11. Briefly: Proliferation assay A (spheroid assay) MV-4-11. The following applies: Homo sapiens, MV4-11, 192 h, MV-4-11 cells, 8 d, AUC of confluence against time, absolute IC50; read-out: (3a) Spheroid assay MV-4-11 (IC50(μM)) Assay A. In kind it is cell-based, human. A digest of the protocol:
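Spheroid growth in ultra-low-attachment round-bottom wells (1,500 MV-4-11, 300 MOLM14 or 750 K562 cells), compound titration at 0.3% DMSO, 8 d at 37° C. Confluence imaged every 4 h; AUC from t=0 baseline expressed as % of DMSO control and fitted for absolute IC50.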

In assay [2] the test system is MOLM14. As to the kind of experiment: Proliferation assay A (spheroid assay) MOLM14. The settings on record: Homo sapiens, MOLM-14, 192 h, MOLM14 cells, 8 d, AUC of confluence against time, absolute IC50; read-out: (3a) Spheroid assay MOLM14 (IC50(μM)) Assay A. In kind it is cell-based, human. The protocol: (§1) 3a) Proliferation Assay A
(§2) The anti-proliferative effect of menin/MLL protein/protein interaction inhibitor test compounds was assessed in human leukemia cell lines. The cell lines MV-4-11 and MOLM14 harbor MILL translocations and express the MILL fusion proteins MLL-AF4 and MLL-AF9, respectively, as well as the wildtype protein from the second allele. […] K562 was used as a control cell line containing two MLL wildtype alleles in order to exclude compounds that display general cytotoxic effects.
(§3) MV-4-11 and MOLM14 were cultured in RPMI-1640 (Sigma Aldrich) supplemented with 10% fetal bovine serum (HyClone), 2 mM L-glutamine (Sigma Aldrich) and 50 μg/ml gentamycin (Gibco). K562 were propagated in RPMI-1640 (Sigma Aldrich) supplemented with 20% fetal bovine serum (HyClone), 2 mM L-glutamine (Sigma Aldrich) and 50 μg/ml gentamycin (Gibco).
(§4) In order to assess the anti-proliferative effects, 1,500 MV-4-11, 300 MOLM14 or 750 K562 cells were seeded in 200 μl media per well in 96-well round bottom, ultra-low attachment plates (Costar, catalogue number 7007). Cell seeding numbers were chosen based on growth curves to ensure linear growth throughout the experiment. Test compounds were added at different concentrations and the DMSO content was normalized to 0.3%. Cells were incubated for 8 d at 37° C. and 5% CO2. Spheroid like growth was monitored in real-time by live-cell imaging (IncuCyteZOOM, Essenbio, 4× objective) acquiring one image every four hours for 8 d. Confluence (%) as a measure of spheroid size was determined using an integrated analysis tool.
In order to determine the cumulative effect of the test compounds over time, the area under the curve (AUC) in a plot of confluence against time was calculated. Confluence at the beginning of the experiment (t=0) was used as baseline for the AUC calculation.
Absolute IC50 values were calculated according to the following procedure: % Control=(AUC sample/AUC control)*100
AUC control mean AUC of control values (cells without compound/DMSO as vehicle control)
A non-linear curve fit was applied using the least squares (ordinary) fit method to the plot of % control versus compound concentration. Based on this, the absolute IC50 value (half maximal inhibitory concentration of the test compound causing an anti-proliferative effect of 50% relative to the vehicle control) was calculated.

The test system of assay [3] is K562. Briefly: Proliferation assay A (spheroid assay) K562 control cell line. The following applies: Homo sapiens, 192 h; K562 cells (MLL wildtype control), 8 d, AUC of confluence against time; read-out: (3a) Spheroid assay K562 Assay A. In kind it is cell-based. As to the method:
as §1, §2
MV-4-11 and MOLM14 were cultured in RPMI-1640 (Sigma Aldrich) supplemented with 10% fetal bovine serum (HyClone), 2 mM L-glutamine (Sigma Aldrich) and 50 μg/ml gentamycin (Gibco). […]
In order to assess the anti-proliferative effects, 1,500 MV-4-11, 300 MOLM14 or 750 K562 cells were seeded in 200 μl media per well in 96-well round bottom, ultra-low attachment plates (Costar, catalogue number 7007). […] Spheroid like growth was monitored in real-time by live-cell imaging (IncuCyteZOOM, Essenbio, 4× objective) acquiring one image every four hours for 8 d. Confluence (%) as a measure of spheroid size was determined using an integrated analysis tool.
In order to determine the cumulative effect of the test compounds over time, the area under the curve (AUC) in a plot of confluence against time was calculated. […]

Assay [4] concerns MV-4-11. Briefly: Proliferation assay B (spheroid assay) MV-4-11. In kind it is cell-based, human. The settings on record: MV-4-11 cells, confluence at day 8, absolute IC50, read-out: (3b) Spheroid assay MV-4--11 (IC50(μM)) Assay B. A digest of the protocol:
(§5)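 Leukemia cells grown as spheroids in ultra-low-attachment round-bottom wells with compound at 0.3% DMSO for 8 d at 37 °C. Confluence imaged at day 8 as spheroid size, normalized between DMSO and 1 μM staurosporine controls; absolute IC50 from sigmoidal fit with bounds fixed at 0 and 100%.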

Assay [5] concerns MOLM14. Briefly: Proliferation assay B (spheroid assay) MOLM14. In kind it is cell-based, human. The settings on record: MOLM14 cells, confluence at day 8, absolute IC50, read-out: (3b) Spheroid assay MOLM14 (IC50(μM)) Assay B. A digest of the protocol: as §5
The subject of assay [6] is K562. Briefly: Proliferation assay B (spheroid assay) K562 control cell line. In kind it is cell-based. The following applies: Homo sapiens, 192 h; K562 cells (MLL wildtype control), confluence at day 8; read-out: (3b) Spheroid assay K562 Assay B. The protocol: 3b) Proliferation Assay B
as §2, §3
as §4, with “MOLM14 cells” for “MOLM14”, “measured” for “monitored”, “images at day 8.” for “one image every four hours for 8 d.”
In order to determine the effect of the test compounds over time, the confluence in each well as a measure of spheroid size, was calculated. Confluence […] at the beginning of the experiment (t=0) was used as baseline for the calculation.
Absolute IC50 values were calculated as percent change in confluence as follows:
LC=Low Control: cells treated with 1 μM of the cytotoxic agent staurosporin
HC=High Control: Mean confluence (%) (DMSO treated cells) % Effect=100−(100*(Sample−LC)/(HC−LC))
To determine the IC50 a curve is fitted to the plot of % Effect vs Log 10 compound concentration using a sigmoidal fit with a variable slope and fixing the maximum to 100% and the minimum to 0%.

Setting [7] is: location 1, read-out: (2) location 1 Menin HTRF assay (IC50 (nM)).
The mark [8] stands for this setting: location 2, read-out: (2) location 2 Menin HTRF assay (IC50 (nM)).

Each structure is given as a SMILES string. Like-named read-outs stand apart in the source and are kept apart here. A value given as a limit tells only on which side of the number the result lay.

For the compound `FC(F)(F)Cc1cc2c(N3CC4(CC[C@@H](NCc5ccccc5)C4)C3)ncnc2s1` (single isomer, unassigned) [Compound 47], the IC50 at menin (setting [7]) is 15.5 nM; in the assay with MV-4-11 [1], 0.14 µM; in the assay with MOLM14 [2] it was 1.02 µM; in the assay on K562 [3], more than 15000 nM.

For `CNC(=O)c1ccc(NC2CC3(CCN(c4ncnc5sc(CC(F)(F)F)cc45)C3)C2)cc1OCCN(C)C` (single isomer, unassigned) [Compound 77], the IC50 is 1.8 nM on menin (setting [8]); 0.19 µM in the assay on MV-4-11 [4] (Homo sapiens, MV4-11, 192 h); 0.63 µM with MOLM14 [5] (Homo sapiens, MOLM-14, 192 h); 7850 nM with K562 [6].

In the case of `CN1CC=C(c2cc(NC3CC4(CCN(c5ncnc6sc(CC(F)(F)F)cc56)C4)C3)ccc2C(C)(C#N)C#N)CC1` (single isomer, unassigned) [Compound 246], the IC50 came out at 206 nM on menin (setting [8]), 0.26 µM in the assay on MV-4-11 [4], 0.13 µM in the assay on MOLM14 [5] and 3970 nM in the assay with K562 [6].

For the compound `FC(F)(F)Cc1cc2c(N3CCC4(CC(NCc5ccccc5)C4)C3)ncnc2s1` (stereo not shown) [Compound 48], the IC50 at menin (setting [7]) was 12 nM; in the assay with MV-4-11 [1] it was 0.35 µM; with MOLM14 [2], 1.58 µM; with K562 [3], more than 15000 nM.

Take `FC(F)(F)Cc1cc2c(N3CCC4(CC(Nc5ccc(-c6nnc[nH]6)cc5)C4)C3)ncnc2s1` (stereo not shown) [Compound 370]: the IC50 was 0.35 µM in the assay with MV-4-11 [4] (Homo sapiens, MV4-11, 192 h); 1.57 µM with MOLM14 [5] (Homo sapiens, MOLM-14, 192 h); 7300 nM in the assay on K562 [6].

Regarding `O=C(NCC(F)(F)F)c1ccc(NC2CC3(CCN(c4ncnc5sc(CC(F)(F)F)cc45)C3)C2)cc1` (stereo not shown) [Compound 371], the IC50 was 0.08 µM with MV-4-11 [4] (Homo sapiens, MV4-11, 192 h); 0.3 µM in the assay with MOLM14 [5] (Homo sapiens, MOLM-14, 192 h); 6480 nM in the assay on K562 [6].

The values are drawn from US11396517B1, “Exo-aza spiro inhibitors of menin-MLL interaction” (Janssen Pharmaceutica NV, priority 2017, dated 2022).
